Results: patent US10112911B2, “Substituted cyanoguanidines as oral anti-virals” (Abbvie Inc, priority 2012, dated 2018)
Where a name gives a salt, the structure may show the parent alone.

System: RSV (Group A, Long Strain)
Experiment: Cytopathetic effect (CPE) protection antiviral assay, MTT readout
Format: cell-based
Conditions: human respiratory syncytial virus, HEp-2, 96 h, HEp-2 cells, 0.2 MOI RSV, 4 days incubation, protection from CPE (Table 1); read-out: RSV EC50
Procedure: HEp-2 cells and RSV (Group A, Long Strain) were obtained from the American Type Culture Collection (Manassas, Va.).
A cytopathetic effect (CPE) protection assay was performed to determine the ability of a compound to protect the cells from viral infection and thus the CPE induced by viral infection. 96-Well plates were first seeded with […] per well in Dulbecco's modified Eagle's medium (DMEM) containing 10% fetal bovine serum (FBS). One day after the cells were seeded, they were preincubated with serial dilutions of compounds prepared in 100 μL assay medium (DMEM mixed with F12 medium at a 1:1 ratio, supplemented with 2% FBS and 1 mM sodium pyruvate) for 1 hour at 37° C. 100 μL of assay medium containing 0.2 multiplicity of infection (MOI) of RSV was then added to each well of cells. In addition to wells containing infected cells incubated with compounds, each plate also contained replicates of two kinds of controls: (1) Virus control contained cells infected with 0.2 MOI of RSV in assay medium, (2) Uninfected cell control contained cells incubated with assay medium only. After 4 days of incubation at 37° C., the viability of cells was assessed using MTT (Thiazolyl blue tetrazolium bromide, Sigma). A stock solution of MTT, at a concentration of 4 mg/mL in phosphate-buffered saline, was added to all wells at 25 μL per well. Plates were further incubated for 4 hours, and each well was then treated with 50 μL of a solution containing 20% sodium dodecyl sulfate (SDS) and 0.02 N HCl. After an overnight incubation, the plates were measured on a BioTek® microtiter plate reader at wavelengths of 570 nm and 650 nm. The MTT detection is based on the fact that viable (uninfected) cells can reduce the tetrazolium salts into colored formazan products, which can then be quantitated by spectrometry. Based on the spectrometric absorbance of each sample, the percent of protection from CPE, which is an indicator of protection from viral infection, can be calculated for each compound and the 50% effective concentrations (EC50) can be calculated using a nonlinear regression curve fitting equation provided by the GraphPad Prism® 4 software.
Compounds were tested to determine both their antiviral and toxicity to determine their therapeutic window. Determination of the EC50 and TD50 of these active compounds were repeated one additional time to confirm the window.

Question: CC(C)C1CN(c2cnc3ccccc3n2)CCN1/C(=N\C#N)Nc1cccc(Cl)c1 (stereo not drawn) [Example 1.28, N-(3-chlorophenyl)-N′-cyano-2-isopropyl-4-(quinoxalin-2-yl)piperazine-1-carboximidamide] was tested. Which EC50 did it give?
Answer: 3.1 µM

Question: For Cc1c(F)cccc1N/C(=N/C#N)N1CCN(c2cnc3ccccc3n2)CC1C(C)C (stereo not drawn) [Example 1.29, N′-cyano-N-(3-fluoro-2-methylphenyl)-2-isopropyl-4-(quinoxalin-2-yl)piperazine-1-carboximidamide], which EC50 is on record?
Answer: > 3.16 µM

Question: Cc1ccccc1N/C(=N/C#N)N1CCN(c2cnc3cc(F)c(F)cc3n2)CC1C(C)C (stereo not drawn) [Example 1.51, N′-cyano-4-(6,7-difluoroquinoxalin-2-yl)-2-isopropyl-N-(2-methylphenyl)piperazine-1-carboximidamide] was tested. Which EC50 did it give?
Answer: 0.69 µM

Question: With Cc1ccccc1N/C(=N/C#N)N1CCN(c2cnc3ccccc3n2)CC12CCC2 [Example 1.43, N′-cyano-N-(2-methylphenyl)-8-(quinoxalin-2-yl)-5,8-diazaspiro[3.5]nonane-5-carboximidamide] as the compound, how does the EC50 read?
Answer: > 10 µM

Question: How did the EC50 turn out when Cc1ccccc1N/C(=N/C#N)N1CCN(c2cnc3ccccc3n2)CC1C(C)(C)C (stereo not drawn) [Example 1.46, 2-tert-butyl-N′-cyano-N-(2-methylphenyl)-4-(quinoxalin-2-yl)piperazine-1-carboximidamide] was run?
Answer: > 10 µM

Question: With Cc1ccccc1NC(=NC#N)N1CCN(c2cnc3ccccc3n2)C(C(C)C)C1 (stereo not drawn) [Example 1.70, N′-cyano-3-isopropyl-N-(2-methylphenyl)-4-(quinoxalin-2-yl)piperazine-1-carboximidamide] as the compound, how does the EC50 read?
Answer: > 10 µM

Question: Cc1ccccc1NC(=NC#N)N1CCN(c2nc(C)c(C)c(NC3CCCCC3)n2)CC1C(C)C (stereo not drawn) [Example 1.64, N′-cyano-4-[4-(cyclohexylamino)-5,6-dimethylpyrimidin-2-yl]-2-isopropyl-N-(2-methylphenyl)piperazine-1-carboximidamide] was tested. Which EC50 did it give?
Answer: > 10 µM

Question: With Cc1ccccc1NC(=NC#N)N1CCN(c2cnc3ccccc3n2)CC1 [Example 1.74, N′-cyano-N-(2-methylphenyl)-4-(quinoxalin-2-yl)piperazine-1-carboximidamide] as the compound, how does the EC50 read?
Answer: > 61.7 µM

Question: With Cc1ccc2ncc(N3CCN(/C(=N\C#N)Nc4ccccc4C)C(C(C)C)C3)nc2c1 (stereo not drawn) [Example 1.56, N′-cyano-2-isopropyl-N-(2-methylphenyl)-4-(7-methylquinoxalin-2-yl)piperazine-1-carboximidamide] as the compound, how does the EC50 read?
Answer: 1.6 µM

Question: For CC(C)c1ccccc1N/C(=N/C#N)N1CCN(c2cnc3ccccc3n2)CC1C(C)C (stereo not drawn) [Example 1.26, N′-cyano-2-isopropyl-N-(2-isopropylphenyl)-4-(quinoxalin-2-yl)piperazine-1-carboximidamide], which EC50 is on record?
Answer: > 10 µM

Question: Cc1ccccc1NC(=NC#N)NC(CNc1cnc2ccccc2n1)C(C)C (stereo not drawn) [Example 2.1, 2-cyano-1-(2-methylphenyl)-3-[3-methyl-1-(quinoxalin-2-ylamino)butan-2-yl]guanidine] was tested. Which EC50 did it give?
Answer: > 10 µM

Question: For Cc1ccc2ccc(N3CCN(C(=NC#N)Nc4ccccc4C)C(C(C)C)C3)nc2n1 (stereo not drawn) [Example 1.68, N′-cyano-2-isopropyl-4-(7-methyl-1,8-naphthyridin-2-yl)-N-(2-methylphenyl)piperazine-1-carboximidamide], which EC50 is on record?
Answer: > 10 µM

Question: For Cc1cccc(C)c1N/C(=N/C#N)N1CCN(c2cnc3ccccc3n2)CC1C(C)C (stereo not drawn) [Example 1.17, N′-cyano-N-(2,6-dimethylphenyl)-2-isopropyl-4-(quinoxalin-2-yl)piperazine-1-carboximidamide], which EC50 is on record?
Answer: 0.54 µM

Question: For CC(C)C1CN(c2cnc3ccccc3n2)CCN1/C(=N\C#N)Nc1ccccc1F (stereo not drawn) [Example 1.21, N′-cyano-N-(2-fluorophenyl)-2-isopropyl-4-(quinoxalin-2-yl)piperazine-1-carboximidamide], which EC50 is on record?
Answer: 2.07 µM

Question: CC(C)CC1CN(c2cnc3ccccc3n2)CCN1/C(=N\C#N)Nc1cccc(F)c1 (stereo not drawn) [Example 1.40, N′-cyano-N-(3-fluorophenyl)-2-isobutyl-4-(quinoxalin-2-yl)piperazine-1-carboximidamide] was tested. Which EC50 did it give?
Answer: > 10 µM

Question: How did the EC50 turn out when Cc1ccccc1N/C(=N/C#N)N1CCN(c2cnc3ccccc3n2)CC1C (stereo not drawn) [Example 1.42, N′-cyano-2-methyl-N-(2-methylphenyl)-4-(quinoxalin-2-yl)piperazine-1-carboximidamide] was run?
Answer: > 10 µM

Question: For Cc1ncccc1N/C(=N/C#N)N1CCN(c2cnc3ccccc3n2)CC1C(C)C (stereo not drawn) [Example 1.73, N′-cyano-2-isopropyl-N-(2-methylpyridin-3-yl)-4-(quinoxalin-2-yl)piperazine-1-carboximidamide], which EC50 is on record?
Answer: > 10 µM

Question: Cc1ccccc1NC(=NC#N)N1CCN(c2cnc3cc(F)ccc3n2)C[C@@H]1C(C)C [Example 1.67, (2S)—N′-cyano-4-(6-fluoroquinoxalin-2-yl)-2-isopropyl-N-(2-methylphenyl)piperazine-1-carboximidamide] was tested. Which EC50 did it give?
Answer: 0.36 µM

Question: With CC(C)CC1CN(c2cnc3ccccc3n2)CCN1/C(=N\C#N)Nc1ccccc1F (stereo not drawn) [Example 1.39, N′-cyano-N-(2-fluorophenyl)-2-isobutyl-4-(quinoxalin-2-yl)piperazine-1-carboximidamide] as the compound, how does the EC50 read?
Answer: > 10 µM

Question: How did the EC50 turn out when Cc1cc2ncc(N3CCN(/C(=N\C#N)Nc4ccccc4C)C(C(C)C)C3)nc2cc1C (stereo not drawn) [Example 1.50, N′-cyano-4-(6,7-dimethylquinoxalin-2-yl)-2-isopropyl-N-(2-methylphenyl)piperazine-1-carboximidamide] was run?
Answer: > 3.2 µM

Question: Which EC50 does the source give for Cc1cccc(N/C(=N/C#N)N2CCN(c3cnc4ccccc4n3)CC2CC(C)C)c1 (stereo not drawn) [Example 1.38, N′-cyano-2-isobutyl-N-(3-methylphenyl)-4-(quinoxalin-2-yl)piperazine-1-carboximidamide] here?
Answer: > 3.1 µM

Question: Cc1ccccc1N/C(=N/C#N)N1CCN(c2cnc3ccccc3n2)CC1CC(C)C (stereo not drawn) [Example 1.37, N′-cyano-2-isobutyl-N-(2-methylphenyl)-4-(quinoxalin-2-yl)piperazine-1-carboximidamide] was tested. Which EC50 did it give?
Answer: 0.4 µM

Question: How did the EC50 turn out when Cc1ccccc1NC(=NC#N)N1CCN(c2cncc(N3CCOCC3)n2)CC1C(C)C (stereo not drawn) [Example 1.63, N′-cyano-2-isopropyl-N-(2-methylphenyl)-4-[6-(morpholin-4-yl)pyrazin-2-yl]piperazine-1-carboximidamide] was run?
Answer: > 10 µM

Question: How did the EC50 turn out when CC(C)C1CN(c2cnc3ccccc3n2)CCN1/C(=N\C#N)Nc1ccc2c(c1)OCO2 (stereo not drawn) [Example 1.14, N-(1,3-benzodioxol-5-yl)-N′-cyano-2-isopropyl-4-(quinoxalin-2-yl)piperazine-1-carboximidamide] was run?
Answer: > 10 µM

Question: How did the EC50 turn out when CC(C)CC1CN(c2cnc3ccccc3n2)CCN1/C(=N\C#N)Nc1ccccc1Cl (stereo not drawn) [Example 1.41, N-(2-chlorophenyl)-N′-cyano-2-isobutyl-4-(quinoxalin-2-yl)piperazine-1-carboximidamide] was run?
Answer: 1.22 µM

Question: For CC(C)C1CN(c2cnc3ccccc3n2)CCN1/C(=N\C#N)Nc1cc(C(C)(C)C)nn1C (stereo not drawn) [Example 1.36, N-(3-tert-butyl-1-methyl-1H-pyrazol-5-yl)-N′-cyano-2-isopropyl-4-(quinoxalin-2-yl)piperazine-1-carboximidamide], which EC50 is on record?
Answer: > 6.6 µM

Question: For Cc1ccccc1N/C(=N/C#N)N1CCN(c2cnc3ccccc3n2)CC1CC1CCCCC1 (stereo not drawn) [Example 1.49, N′-cyano-2-(cyclohexylmethyl)-N-(2-methylphenyl)-4-(quinoxalin-2-yl)piperazine-1-carboximidamide], which EC50 is on record?
Answer: > 3.2 µM

Question: For Cc1ccccc1N/C(=N/C#N)N1CCN(c2ncc3ccccc3n2)CC1C(C)C (stereo not drawn) [Example 1.62, N′-cyano-2-isopropyl-N-(2-methylphenyl)-4-(quinazolin-2-yl)piperazine-1-carboximidamide], which EC50 is on record?
Answer: > 32 µM

Same assay, conditions: human respiratory syncytial virus, HEp-2, 96 h, read-out: RSV EC50

Question: Cc1ccccc1N/C(=N/C#N)N1CCN(c2cnc3ccccc3n2)CC1C(C)C (stereo not drawn) [Example 1.3, N′-cyano-2-isopropyl-N-(2-methylphenyl)-4-(quinoxalin-2-yl)piperazine-1-carboximidamide trifluoroacetate] was tested. Which EC50 did it give?
Answer: 0.25 µM

System: HEp-2 cells
Experiment: Cytotoxicity assay (MTT) run in parallel with the antiviral assay
Format: cell-based
Conditions: uninfected HEp-2 cells, 4 days incubation, 50% toxicity dose
Procedure: HEp-2 cells and RSV (Group A, Long Strain) were obtained from the American Type Culture Collection (Manassas, Va.). Cytotoxicity of the compounds was determined in experiments done in parallel with the antiviral assays. To do this, 100 μL of assay medium was added to the wells of HEp-2 cells pretreated with 100 μL serially diluted compounds as described above. After 4 days of incubation, the viability of the cells was determined by the MT assay in the same way as detailed in the “Antiviral Assay” method. Results were expressed as 50% toxicity dose (TD50) values. Compounds were tested to determine both their antiviral and toxicity to determine their therapeutic window. Determination of the EC50 and TD50 of these active compounds were repeated one additional time to confirm the window.

Question: How did the “MTT TD50” value turn out when Cc1ccccc1N/C(=N/C#N)N1CCN(c2cnc3ccccc3n2)CC1C(C)C (stereo not drawn) [Example 1.3, N′-cyano-2-isopropyl-N-(2-methylphenyl)-4-(quinoxalin-2-yl)piperazine-1-carboximidamide trifluoroacetate] was run?
Answer: >32 µM
